Measurements taken from PMC7686103 (Bioorganic & medicinal chemistry letters, 2020).

Target: hCB1 receptors (Homo sapiens, UniProt P21554)
Test: [35S]GTPγS binding, modulation of G-protein activity in CHO-hCB1 cell membranes
Type: biochemical
Details: 10 μM

Sequence of hCB1 receptors (P21554 whole entry): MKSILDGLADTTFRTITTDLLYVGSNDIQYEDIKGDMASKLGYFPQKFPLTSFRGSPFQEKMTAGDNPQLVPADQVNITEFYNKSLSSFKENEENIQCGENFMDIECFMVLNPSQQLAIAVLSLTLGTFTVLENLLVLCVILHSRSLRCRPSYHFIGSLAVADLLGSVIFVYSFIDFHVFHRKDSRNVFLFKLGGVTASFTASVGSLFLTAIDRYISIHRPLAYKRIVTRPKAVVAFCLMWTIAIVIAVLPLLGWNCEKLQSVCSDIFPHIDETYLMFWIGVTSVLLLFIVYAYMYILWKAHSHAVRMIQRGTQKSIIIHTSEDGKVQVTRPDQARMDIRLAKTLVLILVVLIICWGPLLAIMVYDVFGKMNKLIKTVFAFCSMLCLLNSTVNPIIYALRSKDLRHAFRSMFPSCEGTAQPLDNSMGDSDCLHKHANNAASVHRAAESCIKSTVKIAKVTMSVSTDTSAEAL

Q: For O=C1/C(=C/c2cn(Cc3ccccc3)c3ncccc23)N2CCC1CC2 [Compound 8a], which “Intrinsic activity at hCB1 receptors (modulation of [35S]GTPγS binding)” value (“Intrinsic activity at hCB1 receptors” for short) is on record?
A: Its value is “neutral antagonist”.

Q: How did the “Intrinsic activity at hCB1 receptors” value turn out when O=C1/C(=C/c2cn(Cc3ccc(Cl)cc3)c3ncccc23)N2CCC1CC2 [Compound 8b] was run?
A: Its value is “inverse agonist activity”.

Q: Which “Intrinsic activity at hCB1 receptors” value does the source give for O=C1/C(=C/c2cn(Cc3ccc(Br)cc3)c3ncccc23)N2CCC1CC2 [Compound 8f] here?
A: The value was “inverse agonist”.

Q: How did the “Intrinsic activity at hCB1 receptors” value turn out when O=C1/C(=C/c2cn(Cc3ccc(F)cc3)c3ncccc23)N2CCC1CC2 [Compound 8g] was run?
A: The value was “neutral antagonist”.

Target: hCB2 receptors (Homo sapiens, UniProt P34972)
Sequence (P34972 whole entry): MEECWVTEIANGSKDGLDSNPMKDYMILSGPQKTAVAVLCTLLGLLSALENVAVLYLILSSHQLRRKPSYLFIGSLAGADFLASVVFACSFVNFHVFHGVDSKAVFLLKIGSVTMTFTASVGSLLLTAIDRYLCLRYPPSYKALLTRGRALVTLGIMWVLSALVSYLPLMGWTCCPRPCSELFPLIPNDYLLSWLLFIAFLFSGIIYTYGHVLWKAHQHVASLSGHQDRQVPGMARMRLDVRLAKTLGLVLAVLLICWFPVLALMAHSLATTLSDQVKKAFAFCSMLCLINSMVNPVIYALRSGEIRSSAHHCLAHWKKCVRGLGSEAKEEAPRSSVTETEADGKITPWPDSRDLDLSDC
Test: [35S]GTPγS binding, modulation of G-protein activity in CHO-hCB2 cell membranes
Type: biochemical
Details: 10 μM

Q: For COc1ccc(C(=O)c2c(C)n(CCN3CCOCC3)c3cc(I)ccc23)cc1 [AM-630, reference compound], which “Intrinsic activity at hCB2 receptors (modulation of [35S]GTPγS binding)” value (shortened to “Intrinsic activity at hCB2 receptors”) is on record?
A: Its value is “inverse agonist activity”.

Q: O=C1/C(=C/c2cn(Cc3ccccc3)c3ncccc23)N2CCC1CC2 [Compound 8a] was tested. Which “Intrinsic activity at hCB2 receptors” value did it give?
A: Its value is “neutral antagonist”.

Q: Which “Intrinsic activity at hCB2 receptors” value does the source give for O=C1/C(=C/c2cn(Cc3ccc(Cl)cc3)c3ncccc23)N2CCC1CC2 [Compound 8b] here?
A: The value was “inverse agonist activity”.

Q: Which “Intrinsic activity at hCB2 receptors” value does the source give for O=C1/C(=C/c2cn(Cc3ccc(Br)cc3)c3ncccc23)N2CCC1CC2 [Compound 8f] here?
A: Its value is “neutral antagonist”.

Q: With O=C1/C(=C/c2cn(Cc3ccc(F)cc3)c3ncccc23)N2CCC1CC2 [Compound 8g] as the molecule, how does the “Intrinsic activity at hCB2 receptors” value read?
A: The value was “partial agonist”.
